Laboratory results taken from US8222430B2, “1-heterodiene derivative and harmful organism control agent” (priority 2008, dated 2012).
Like-named read-outs stand apart in the source and are kept apart here.

Key:
Pseudaletia separate = assay: Confirmation of efficacy against Pseudaletia separate (maize leaf soak, insect mortality); format: in vivo; conditions: 120 h, maize leaves soaked 30 seconds, second-instar larvae, after five days, 25° C., humidity 65%, read-out: mortality rate
Text: Maize leaves were soaked in the resulting chemical solution for 30 seconds and air-dried. Then the leaves were put on Petri dishes lined with a filter paper, followed by inoculating 5 second-instar larvae. […] Mortality was investigated after five days, and the insect mortality rate was obtained. The test was repeated twice.

Bemisia tabaci = assay: Confirmation of efficacy against Bemisia tabaci (sprayed detached tomato leaves, insect mortality); format: in vivo; conditions: 72 h, B type adults, after three days, 25° C., humidity 65%, read-out: mortality rate
Text: Detached tomato leaves were sprayed with the resulting chemical solution and air-dried. Then, the leaves were set on flasks in a manner that the surface of the leaves face upward. […] The test was repeated twice.

Aphis gossypii = assay: Confirmation of efficacy against Aphis gossypii (cucumber seedlings, insect mortality); format: in vivo; conditions: 120 h, read-out: mortality rate
Text: Mortality was investigated after five days, and the insect mortality rate was obtained.
The test was repeated twice.

[1] = test system: Tetranychus urticae with organophosphate resistance; assay: Confirmation of efficacy against Tetranychus urticae (bean seedlings, mortality); conditions: for mortality rate: 125 ppm, sprayed bean seedlings, female adults with organophosphate resistance, after three days, 25° C., humidity 65%
[2] = 125 ppm, cucumber seedlings parasitized with offspring, after five days, 25° C., humidity 65%

| SMILES | mortality at 125 ppm (Pseudaletia separate) | mortality at 125 ppm (Bemisia tabaci) | mortality rate [1] | other results |
| --- | --- | --- | --- | --- |
| C(/Sc1ccccc1)=C1/CCS/C1=N\c1ccccc1 [Compound 1a-1, (Z)—N-((E)-3-(phenylthiomethylene)dihydrothiophen-2(3H)-ylidene)aniline] | 100% | 100% | – | – |
| C(/Sc1ccccc1)=C1/CCCS/C1=N\c1ccccc1 [Compound 2a-1, (Z)—N-((E)-3-(phenylthiomethylene)tetrahydro-2H-thiopyran-2-ylidene) aniline] | 100% | 100% | – | mortality at 125 ppm (Aphis gossypii; [2]): 100% |
| Cc1ccc(/N=C2\SCCC\C2=C/Sc2ccc(F)cc2)cc1 [Compound 2a-78] | – | – | 100% | – |
| Cc1ccc(/N=C2\OC(C)CC\C2=C/Sc2ccccc2)cc1 (centres unmarked) [Compound 2a-83] | – | – | 100% | – |
| CCCC1CCC(=C\Sc2ccccc2)/C(=N/c2ccc(C)cc2)O1 (centres unmarked) [Compound 2a-84] | – | – | 100% | – |
| Cc1ccc(/N=C2\OC(C)(C)CC\C2=C/Sc2ccccc2)cc1 [Compound 2a-85] | – | – | 100% | – |
| Cc1ccc(/N=C2\OC(c3ccccc3)CC\C2=C/Sc2ccccc2)cc1 (centres unmarked) [Compound 2a-86] | – | – | 100% | – |
| Cc1ccc(/N=C2\OC3CCCCC3C\C2=C/Sc2ccccc2)cc1 (centres unmarked) [Compound 5a-1] | 100% | 100% | – | mortality at 125 ppm (Aphis gossypii; [2]): 100% |
| Cc1ccc(/N=C2\OCc3ccccc3\C2=C/Sc2ccccc2)cc1 [Compound 5a-2] | 100% | – | – | – |
| Cc1ccc(/N=C2\OC3CCCCC3\C2=C/Sc2ccccc2)cc1 (centres unmarked) [Compound 5a-3] | 100% | 100% | – | – |
| Clc1ccc(/N=C2\SC3C=CCCC3C\C2=C/Sc2ccccc2)cc1 (centres unmarked) [Compound 5a-5, (4-chloro-phenyl)-{3-[1-phenylsulfanyl-(E)-methylidene]-3,4,4a,5,6,8a-hexahydro-thiochromene-(2Z)-ylidene}-amine] | 100% | 100% | – | mortality at 125 ppm (Aphis gossypii): 100%; mortality at 125 ppm ([1]; Tetranychus urticae, 72 h, read-out: mortality rate): 100% |
